Results on 13 molecules are retold here after PubChem BioAssay (NCI).

“And” between values parts separate entries of the source, which are not always exact repeats. Equal values may be shown once.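 Dose response: 5 concentrations. Exposure: 48 h. Format: 96-well plates. Endpoint: linear interpolation; highest concentration if not reached. GI50 is the concentration that inhibits growth by half. Definition used: TGI = concentration required for complete inhibition of growth.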

Test systems include A498 renal; A549 NSCLC; COLO 205 colon; DU-145 prostate; HCC-2998 colon; M14 melanoma; MALME-3M melanoma; RPMI-8226 leukemia; SNB-19 CNS; TK-10 renal.
What all share (test): DTP human tumour cell line panel, 48 h

As for `COc1cc([N+](=O)[O-])c(OC)cc1-c1nc2n(c1/C(N)=N/C(=N)N)CCS2`, the GI50 in the test with A498 renal is more than 100 µM; in the test with A549 NSCLC, 59.3 µM; in the test with COLO 205 colon, more than 100 µM; with DU-145 prostate, 50.4 µM; in the test on HCC-2998 colon, more than 100 µM; with M14 melanoma, more than 100 µM. Moreover, the GI50 with MALME-3M melanoma is 18.7 µM; in the test on RPMI-8226 leukemia, more than 100 µM; in the test with SNB-19 CNS, 10.2 µM; with TK-10 renal, 20.3 µM. Besides, the TGI with A498 renal, with A549 NSCLC, in the test with COLO 205 colon, in the test with DU-145 prostate, in the test with HCC-2998 colon and with M14 melanoma was more than 100 µM each time. The TGI in the test on MALME-3M melanoma was 60.6 µM; in the test with RPMI-8226 leukemia, more than 100 µM; in the test with SNB-19 CNS, more than 100 µM; in the test on TK-10 renal, 96.4 µM.

As for `Cc1cccc2c1NC(=O)C2(c1ccc(O)cc1)c1ccc(O)cc1`, the GI50 was 0.559 µM in the test on A498 renal; 21.1 µM in the test on A549 NSCLC; 0.0135 µM in the test on COLO 205 colon; 15.3 µM with DU-145 prostate; 0.0706 µM in the test on HCC-2998 colon; 15.5 µM with M14 melanoma. The GI50 in the test on MALME-3M melanoma is 17.8 µM; in the test with RPMI-8226 leukemia, 17.9 µM; in the test on SNB-19 CNS, 28.5 µM; in the test on TK-10 renal, 0.0206 µM. Moreover, the TGI in the test on A498 renal was 25.1 µM; in the test with A549 NSCLC it was more than 100 µM; in the test with COLO 205 colon, 11.1 µM; with DU-145 prostate, 55.4 µM; with HCC-2998 colon, 24.6 µM; in the test on M14 melanoma, 41 µM. In addition, the TGI in the test on MALME-3M melanoma is 55.5 µM; with RPMI-8226 leukemia, 64 µM; with SNB-19 CNS it was more than 100 µM; in the test with TK-10 renal, 39.1 µM.

Consider `Cc1nc2sc(C(=O)Nc3cccc(Cl)c3C)c(N)c2cc1C(=O)c1ccccc1`, for which the GI50 in the test with A498 renal is 0.124 µM; with A549 NSCLC it was 0.245 µM; with COLO 205 colon, 0.293 µM; with DU-145 prostate it was 0.524 µM; in the test with HCC-2998 colon, 1.01 µM; in the test with M14 melanoma, 0.214 µM. For the same molecule, the GI50 in the test on MALME-3M melanoma was 0.811 µM; in the test with RPMI-8226 leukemia, 0.249 µM; in the test with SNB-19 CNS, 0.222 µM; with TK-10 renal, 2.48 µM. For the same molecule, the TGI with A498 renal was 1.64 µM; in the test with A549 NSCLC, more than 50 µM; in the test with COLO 205 colon, 5.02 µM; in the test on DU-145 prostate, more than 50 µM; with HCC-2998 colon, more than 50 µM; with M14 melanoma it was more than 50 µM. Further, the TGI in the test with MALME-3M melanoma is more than 50 µM; in the test with RPMI-8226 leukemia it was more than 15.9 µM; with SNB-19 CNS it was more than 50 µM; with TK-10 renal, more than 50 µM.

Regarding `COc1cc(C(=O)Nc2cc(O)c(C/C=C(\C)CCC=C(C)C)c(O)c2)cc2c1O[C@]1(C)CC[C@@H](O)C(C)(C)[C@H]1C2`, the GI50 in the test with A498 renal is 0.0623 µM and 0.0258 µM; in the test with A549 NSCLC it was 0.381 µM and 0.214 µM; with COLO 205 colon, 0.386 µM and 0.678 µM; in the test with DU-145 prostate, 1.88 µM and 0.331 µM; in the test on HCC-2998 colon, 1.49 µM and 2.13 µM; with M14 melanoma, 0.0984 µM and 0.0812 µM. Moreover, the GI50 in the test on MALME-3M melanoma is 0.3 µM and 1.24 µM; in the test on RPMI-8226 leukemia, 0.00911 µM and 0.0197 µM; in the test with SNB-19 CNS it was 3.28 µM and 1.9 µM; with TK-10 renal, 2.54 µM. Besides, the TGI was 1.72 µM and 0.889 µM with A498 renal; 13.9 µM in the test with A549 NSCLC; 4.25 µM and 5.32 µM in the test on COLO 205 colon; 13.1 µM with DU-145 prostate; 16.4 µM in the test on HCC-2998 colon; 4.76 µM and 1.91 µM with M14 melanoma. Besides, the TGI in the test on MALME-3M melanoma was 7.46 µM; in the test with RPMI-8226 leukemia, 0.0806 µM and 0.0958 µM; in the test on SNB-19 CNS, 26.4 µM; in the test on TK-10 renal, 28.9 µM.

Turning to `O=C1CCCC(=O)C1C(=O)c1ccc(C(F)(F)F)cc1[N+](=O)[O-]`, the GI50 with A498 renal, with A549 NSCLC, in the test with COLO 205 colon, with DU-145 prostate, in the test on HCC-2998 colon and in the test on M14 melanoma was more than 100 µM throughout. For the same molecule, the GI50 in the test with MALME-3M melanoma, with RPMI-8226 leukemia, in the test on SNB-19 CNS and in the test with TK-10 renal was more than 100 µM each time. Moreover, the TGI with A498 renal, in the test on A549 NSCLC, with COLO 205 colon, in the test with DU-145 prostate, with HCC-2998 colon and with M14 melanoma was more than 100 µM each time. Also, the TGI with MALME-3M melanoma, in the test on RPMI-8226 leukemia, in the test with SNB-19 CNS and in the test on TK-10 renal was more than 100 µM throughout.

Regarding `Nc1ncnc2c1c(C(=O)NO)cn2C1OC(CO)C(O)C1O` (stereo not drawn), the GI50 was 0.915 µM in the test on A498 renal; 0.462 µM in the test with A549 NSCLC; 0.279 µM in the test with COLO 205 colon; 0.224 µM in the test on DU-145 prostate; 0.587 µM with HCC-2998 colon; 0.285 µM with M14 melanoma. The GI50 with MALME-3M melanoma is 0.388 µM; in the test with RPMI-8226 leukemia, 0.282 µM; in the test on SNB-19 CNS, 0.847 µM; in the test with TK-10 renal it was 0.572 µM. Further, the TGI is 6.9 µM in the test with A498 renal; more than 40.4 µM in the test on A549 NSCLC; 1.55 µM with COLO 205 colon; 6.83 µM in the test with HCC-2998 colon; 1.53 µM in the test on M14 melanoma; 3.11 µM in the test with MALME-3M melanoma. The TGI with SNB-19 CNS is more than 100 µM; in the test with TK-10 renal it was more than 31.4 µM.

Turning to `Cc1cc2c(=O)c3ccccc3oc2c(C#N)c1C`, the TGI in the test on A498 renal, in the test with A549 NSCLC, in the test on COLO 205 colon, in the test with DU-145 prostate, with HCC-2998 colon and with M14 melanoma was more than 100 µM throughout. In addition, the TGI with MALME-3M melanoma, with RPMI-8226 leukemia, with SNB-19 CNS and with TK-10 renal was more than 100 µM each time.

Consider `Cc1[nH]c2ccccc2c1C1=CC(=O)C=CC1=O`, for which the GI50 with A498 renal was 14.5 µM; in the test on A549 NSCLC it was 21 µM; in the test on COLO 205 colon, 2.48 µM; in the test with DU-145 prostate, 13.4 µM; in the test on HCC-2998 colon, 15.7 µM; with M14 melanoma, 13.6 µM. The GI50 in the test on MALME-3M melanoma is 7.45 µM; in the test with RPMI-8226 leukemia, 11 µM; with SNB-19 CNS, 16.6 µM; in the test on TK-10 renal, 2.32 µM. For the same molecule, the TGI came to 40 µM in the test on A498 renal; 63.9 µM in the test on A549 NSCLC; 5.43 µM in the test with COLO 205 colon; 26.8 µM in the test with DU-145 prostate; 29.4 µM in the test with HCC-2998 colon; 27.7 µM in the test on M14 melanoma. In addition, the TGI came out at 27.8 µM in the test on MALME-3M melanoma, 38.2 µM with RPMI-8226 leukemia, 41.6 µM with SNB-19 CNS and 5.85 µM in the test on TK-10 renal.

Regarding `O=C(OC(CNc1c(C(=O)c2ccccc2)c(=O)n(Cc2ccccc2)c(=O)n1Cc1ccccc1)CN1CCCCC1)c1ccccc1` (stereo not drawn), the GI50 with A498 renal is 32.3 µM; in the test on A549 NSCLC, 50.3 µM; in the test on COLO 205 colon it was 19.6 µM; with DU-145 prostate, 29.3 µM; in the test on HCC-2998 colon, 12.1 µM; in the test on M14 melanoma it was 16.3 µM. The GI50 is 18.5 µM with MALME-3M melanoma, 13.8 µM in the test on RPMI-8226 leukemia, 30.4 µM in the test on SNB-19 CNS and 23.6 µM with TK-10 renal. Moreover, the TGI with A498 renal was 76.5 µM; in the test with A549 NSCLC it was more than 100 µM; in the test on COLO 205 colon, 47.8 µM; with DU-145 prostate, 80.9 µM; in the test on HCC-2998 colon it was 24.4 µM; in the test on M14 melanoma, 31.1 µM. In addition, the TGI came to 40.7 µM in the test with MALME-3M melanoma, 31.8 µM in the test with RPMI-8226 leukemia, 83.5 µM in the test with SNB-19 CNS and 71.6 µM in the test with TK-10 renal.

`NCC(=O)NC(CO)C(=O)O` (stereo not drawn): the TGI in the test with A498 renal, with A549 NSCLC, in the test on COLO 205 colon, in the test on DU-145 prostate, in the test with HCC-2998 colon and with M14 melanoma was more than 100 µM in each case. The TGI in the test with MALME-3M melanoma, in the test on RPMI-8226 leukemia, in the test on SNB-19 CNS and in the test with TK-10 renal was more than 100 µM each time.

Take `O=[N+]([O-])c1ccc(NN=C2c3ccccc3Cc3ccccc32)c([N+](=O)[O-])c1`: the TGI in the test on A498 renal, in the test with A549 NSCLC, with COLO 205 colon, in the test with DU-145 prostate, in the test with HCC-2998 colon and with M14 melanoma was more than 100 µM in each case. Further, the TGI in the test on MALME-3M melanoma, in the test on RPMI-8226 leukemia, in the test on SNB-19 CNS and with TK-10 renal was more than 100 µM throughout.

On to `COc1ccc(NC(=O)CC(=O)n2nc(-c3ccccc3)c(N=Nc3ccccc3C)c2-c2ccccc2)cc1`, for which the TGI with A498 renal is 52.6 µM; in the test on A549 NSCLC, 41.7 µM; in the test with COLO 205 colon it was 99.8 µM; with DU-145 prostate, more than 100 µM; with HCC-2998 colon it was more than 100 µM; with M14 melanoma, more than 100 µM. Besides, the TGI is 81.9 µM in the test on MALME-3M melanoma, more than 100 µM in the test with RPMI-8226 leukemia, more than 69.7 µM with SNB-19 CNS and 47.2 µM in the test on TK-10 renal.

For the molecule `COc1cccc2cc(-c3nc(C4CCC(C(=O)O)CC4)n4ncnc(N)c34)[nH]c12` (stereo not drawn), the GI50 in the test on A498 renal is 0.0677 µM and 0.0601 µM; with A549 NSCLC, 1.21 µM and 1.97 µM; with COLO 205 colon it was 1.07 µM and 0.542 µM; in the test on DU-145 prostate, 1.22 µM and 1.63 µM; in the test on HCC-2998 colon, 0.451 µM and 0.729 µM; in the test on M14 melanoma, 0.219 µM and 0.36 µM. The GI50 in the test with MALME-3M melanoma was 0.0296 µM and 0.0752 µM; in the test with RPMI-8226 leukemia, 0.185 µM and 0.303 µM; in the test on SNB-19 CNS, 1.34 µM and 1.49 µM; in the test on TK-10 renal, 0.15 µM and 0.411 µM. Further, the TGI in the test on A498 renal was 0.407 µM and 0.365 µM; in the test on A549 NSCLC, 11.8 µM and > 10 µM; in the test with COLO 205 colon, 13.5 µM and > 8.26 µM; in the test with DU-145 prostate it was 24.3 µM and > 10 µM; in the test on HCC-2998 colon it was 35.3 µM and > 10 µM; in the test on M14 melanoma, 3.76 µM and > 7.22 µM. Also, the TGI with MALME-3M melanoma was 0.354 µM and 0.675 µM; with RPMI-8226 leukemia, 3.02 µM and > 5.2 µM; with SNB-19 CNS, more than 100 µM; in the test with TK-10 renal, 1.63 µM and 6.11 µM.
